pKd: −log10 of the molar value. Residues, ends and D or L forms follow the SMILES beside them.
Experiments:
E. coli = conditions: IM or OM of E. coli; cited from earlier work
Gram-negative strains = conditions: all the Gram-negative strains tested; cited from earlier work
[1] = target: LptA labeled with DyLight650 (E. coli) (UniProt P0ADV1); test: MST
LptA-His6 (E. coli) = LptA-His6 (E. coli) (UniProt P0ADV1); test: fluorescence polarisation

CC[C@H](C)CCCCC(=O)N[C@@H](CCN)C(=O)N[C@H](C(=O)N[C@@H](CCN)C(=O)N[C@H]1CCNC(=O)[C@H]([C@@H](C)O)NC(=O)[C@H](CCN)NC(=O)[C@H](CCN)NC(=O)[C@H](CC(C)C)NC(=O)[C@@H](CC(C)C)NC(=O)[C@H](CCN)NC1=O)[C@@H](C)O [Colistin] (HELM PEPTIDE1{[CC[C@H](C)CCCCC(=O)[*:2]].[Dab].T.[Dab].[Dab].[Dab].[dL].L.[Dab].[Dab].T}$PEPTIDE1,PEPTIDE1,5:R3-11:R2$$$V2.0; N-terminus assumed; bridges inferred)
membrane permeabilization by other cationic antimicrobial peptides (E. coli): unlike what is seen with some other cationic antimicrobial peptides

D-thanatin: enantiomeric form of thanatin (comprising all D-amino acids)
activity of enantiomeric form (Gram-negative strains): loses much of its activity

polymyxin B
membrane permeabilization by other cationic antimicrobial peptides (E. coli): unlike what is seen with some other cationic antimicrobial peptides

thanatin (peptide)
pKd [1]: 7.70

thanatin-BDP-FL (peptide)
pKd (LptA-His6 (E. coli)): 7.92
